Measurements: PubChem BioAssay AID330 (DTP/NCI, 2004)
Toxic doses and inconclusive results are not listed. The calls were made as follows: active = survival T/C of 150% or more; inactive = T/C below 125% in these data.

Tested on: P388 leukemia ip, CD2F1 mice, survival T/C
Test: NCI In Vivo Anticancer Drug Screen. Data for tumor model P388 Leukemia (intraperitoneal) in CD2F1 (CDF1) mice
Conditions: endpoint: median survival time, higher = longer survival
How it was run: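 Mice carrying the transplanted tumor received test compound or vehicle. Survival was recorded in each group, and the value is the treated-group measurement divided by that of the vehicle-treated control group.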

[1] = dose: 50.0 mg/kg/injection, schedule: Q01DX005 (ip), vehicle: saline with Tween-80
[2] = dose: 100.0 mg/kg/injection, schedule: Q01DX001 (ip), vehicle: saline with Tween-80
[3] = dose: 60.0 mg/kg/injection, schedule: Q01DX005 (ip), vehicle: saline with Tween-80
[4] = dose: 120.0 mg/kg/injection, schedule: Q01DX005 (ip), vehicle: saline with Tween-80
[5] = dose: 240.0 mg/kg/injection, schedule: Q01DX005 (ip), vehicle: saline with Tween-80
[6] = dose: 50.0 mg/kg/injection, schedule: Q01DX009 (ip), vehicle: Klucel (hydroxypropylcellulose) (HPC)
[7] = dose: 100.0 mg/kg/injection, schedule: Q01DX009 (ip), vehicle: Klucel (hydroxypropylcellulose) (HPC)
[8] = dose: 200.0 mg/kg/injection, schedule: Q01DX009 (ip), vehicle: Klucel (hydroxypropylcellulose) (HPC)
[9] = dose: 100.0 mg/kg/injection, schedule: Q04DX003 (ip), vehicle: saline with Tween-80
[10] = dose: 200.0 mg/kg/injection, schedule: Q04DX003 (ip), vehicle: saline with Tween-80
[11] = dose: 400.0 mg/kg/injection, schedule: Q04DX003 (ip), vehicle: saline with Tween-80
[12] = dose: 100.0 mg/kg/injection, schedule: Q01DX009 (ip), vehicle: saline with Tween-80

Measured: T/C

CCOC(=O)c1cc2c(nc1C)-c1ccccc1OC2Nc1ccccc1 (stereo not given)
inactive: dose: 3.12 mg/kg/injection, schedule: Q01DX005 (ip), vehicle: saline with Tween-80 98 % of control | dose: 6.25 mg/kg/injection, schedule: Q01DX005 (ip), vehicle: saline with Tween-80 96 % of control | dose: 12.5 mg/kg/injection, schedule: Q01DX005 (ip), vehicle: saline with Tween-80 96 % of control | [1] 88 % of control | [2] 89 % of control

CC(C)(Br)C(=O)/C=C/c1ccc(Cl)cc1
inactive: [3] 108 % of control | [4] 104 % of control | [5] 114 % of control

COCC(=O)[C@]1(O)Cc2c(O)c3c(c(O)c2[C@@H](OC2CC(N)C(O)C(C)O2)C1)C(=O)c1c(OC)cccc1C3=O (stereo not given in full)
inactive: dose: 6.25 mg/kg/injection, schedule: Q04DX003 (ip), vehicle: water 100 % of control | dose: 12.5 mg/kg/injection, schedule: Q04DX003 (ip), vehicle: water 100 % of control | dose: 25.0 mg/kg/injection, schedule: Q04DX003 (ip), vehicle: water 109 % of control | dose: 100.0 mg/kg/injection, schedule: Q04DX003 (ip), vehicle: water 118 % of control | dose: 200.0 mg/kg/injection, schedule: Q04DX003 (ip), vehicle: water 87 % of control

Cc1c(N=Nc2cccc(Cl)c2Cl)c(-c2ccccc2)nn1C(N)=S
inactive: dose: 25.0 mg/kg/injection, schedule: Q01DX005 (ip), vehicle: Klucel (hydroxypropylcellulose) (HPC) 94 % of control | dose: 50.0 mg/kg/injection, schedule: Q01DX005 (ip), vehicle: Klucel (hydroxypropylcellulose) (HPC) 99 % of control | dose: 100.0 mg/kg/injection, schedule: Q01DX005 (ip), vehicle: Klucel (hydroxypropylcellulose) (HPC) 96 % of control

N#C/C(=C/c1ccccc1)CBr
inactive: [2] 95 % of control

CN1C(c2ccccc2)=C(C#N)C(=O)CC(c2ccco2)N1C (stereo not given)
inactive: [3] 98 % of control | [4] 92 % of control | [5] 89 % of control

O=C(c1ccc(-c2ccccc2)cc1)C(Br)C(Br)c1ccccc1 (stereo not given)
inactive: dose: 25.0 mg/kg/injection, schedule: Q01DX009 (ip), vehicle: other 90 % of control | dose: 100.0 mg/kg/injection, schedule: Q01DX009 (ip), vehicle: other 90 % of control | dose: 200.0 mg/kg/injection, schedule: Q01DX009 (ip), vehicle: other 101 % of control | dose: 400.0 mg/kg/injection, schedule: Q01DX009 (ip), vehicle: other 116 % of control

Nc1ccc2nc(N)sc2c1
inactive: dose: 50.0 mg/kg/injection, schedule: Q01DX009 (ip), vehicle: saline 100 % of control | dose: 100.0 mg/kg/injection, schedule: Q01DX009 (ip), vehicle: saline 93 % of control | dose: 200.0 mg/kg/injection, schedule: Q01DX009 (ip), vehicle: saline 101 % of control

CN(C)CC1CCC2=C(C1=O)C(c1ccc(Cl)c(Cl)c1)C1=C(CCC(CN(C)C)C1=O)O2 (stereo not given)
inactive: dose: 60.0 mg/kg/injection, schedule: Q01DX005 (ip), vehicle: suspension in saline 100 % of control | dose: 120.0 mg/kg/injection, schedule: Q01DX005 (ip), vehicle: suspension in saline 106 % of control | dose: 240.0 mg/kg/injection, schedule: Q01DX005 (ip), vehicle: suspension in saline 99 % of control

CC/C(=N/OC)C(=O)OC
inactive: [1] 93 % of control | dose: 100.0 mg/kg/injection, schedule: Q01DX005 (ip), vehicle: saline with Tween-80 99 % of control | dose: 200.0 mg/kg/injection, schedule: Q01DX005 (ip), vehicle: saline with Tween-80 100 % of control

CCO/C(C)=C(\C#N)C(Cl)=Nc1ccc(OC)cc1
inactive: dose: 100.0 mg/kg/injection, schedule: Q04DX002 (ip), vehicle: saline with Tween-80 108 % of control | dose: 200.0 mg/kg/injection, schedule: Q04DX002 (ip), vehicle: saline with Tween-80 101 % of control | dose: 400.0 mg/kg/injection, schedule: Q04DX002 (ip), vehicle: saline with Tween-80 100 % of control

CCN(CC)CCCCCCCCOC(=O)c1cc(OC)c(OC)c(OC)c1
inactive: dose: 12.5 mg/kg/injection, schedule: Q01DX005 (ip), vehicle: saline 101 % of control | dose: 25.0 mg/kg/injection, schedule: Q01DX005 (ip), vehicle: saline 97 % of control | dose: 50.0 mg/kg/injection, schedule: Q01DX005 (ip), vehicle: saline 96 % of control | dose: 60.0 mg/kg/injection, schedule: Q01DX005 (ip), vehicle: saline 99 % of control

N#C/C(=C/c1ccco1)c1ccc(Cl)cc1
inactive: [6] 90 % of control | [7] 95 % of control | [8] 92 % of control

CS/C(=N\N=C(/C)c1ccccn1)N1CCN(c2ccccn2)CC1
inactive: [9] 98 % of control | [10] 99 % of control | [11] 96 % of control

CCOC(=O)c1c(C)c2c(n1C)CCc1cn[nH]c1-2
inactive: dose: 25.0 mg/kg/injection, schedule: Q01DX009 (ip), vehicle: Klucel (hydroxypropylcellulose) (HPC) 99 % of control | [6] 105 % of control | [7] 107 % of control | [8] 107 % of control | dose: 400.0 mg/kg/injection, schedule: Q01DX009 (ip), vehicle: Klucel (hydroxypropylcellulose) (HPC) 98 % of control | dose: 600.0 mg/kg/injection, schedule: Q01DX009 (ip), vehicle: Klucel (hydroxypropylcellulose) (HPC) 98 % of control

C(=Nc1cnc2ccccc2c1)c1ccnc2ccccc12
inactive: dose: 12.5 mg/kg/injection, schedule: Q01DX009 (ip), vehicle: saline with Tween-80 98 % of control | dose: 12.5 mg/kg/injection, schedule: Q04DX003 (ip), vehicle: saline with Tween-80 107 % of control | dose: 25.0 mg/kg/injection, schedule: Q01DX009 (ip), vehicle: saline with Tween-80 98 % of control | dose: 25.0 mg/kg/injection, schedule: Q04DX003 (ip), vehicle: saline with Tween-80 96 % of control | dose: 50.0 mg/kg/injection, schedule: Q01DX009 (ip), vehicle: saline with Tween-80 101 % of control | dose: 50.0 mg/kg/injection, schedule: Q04DX003 (ip), vehicle: saline with Tween-80 114 % of control | [12] 96 % of control | [9] 99 % of control

CO[C@H]1/C=C/O[C@@]2(C)Oc3c(C)c(O)c4c(O)c(c(/C=N/N5CCNCC5)c(O)c4c3C2=O)NC(=O)/C(C)=C\C=C\[C@H](C)[C@H](O)[C@@H](C)[C@@H](O)[C@@H](C)C(OC(C)=O)[C@@H]1C (stereo not given in full)
inactive: [12] 95 % of control | [9] 91 % of control | dose: 200.0 mg/kg/injection, schedule: Q01DX009 (ip), vehicle: saline with Tween-80 104 % of control | [10] 91 % of control | [11] 100 % of control
